Assay results from the NIST ThermoML archive (doi:10.1016/j.jct.2016.02.013).
± gives the expanded uncertainty stated by the source.

Tests used:
[1] = for surface tension liquid-gas: Pendant drop shape; for electrical conductivity / viscosity / mass density: 101.33 kPa; for surface tension liquid-gas / electrical conductivity / viscosity / mass density: Liquid; for electrical conductivity: Alternating current cell with electrodes; for viscosity: Concentric cylinders viscometry; for mass density: Vibrating tube method
[2] = refractive index (Na D-line) (dimensionless); settings: 101.33 kPa, Liquid, Standard Abbe refractometry

`CC[n+]1cccc(C)c1.O=S(=O)([O-])C(F)(F)C(F)(F)C(F)(F)C(F)(F)F` [1-ethyl-3-methylpyridinium perfluorobutanesulfonate] gave a surface tension liquid-gas ([1]; 298.3 K) of 26.35 ± 0.32 mN/m, a surface tension liquid-gas ([1]; 303.4 K) of 26.16 ± 0.32 mN/m and a surface tension liquid-gas ([1]; 313.4 K) of 25.77 ± 0.31 mN/m. It also gave a surface tension liquid-gas ([1]; 323.6 K) of 25.39 ± 0.31 mN/m, a surface tension liquid-gas ([1]; 332.9 K) of 25.12 ± 0.31 mN/m and a surface tension liquid-gas ([1]; 343 K) of 24.7 ± 0.3 mN/m.

Work on `CCCC[N+](CCCC)(CCCC)CCCC.O=S(=O)([O-])C(F)(F)C(F)(F)C(F)(F)C(F)(F)C(F)(F)C(F)(F)C(F)(F)C(F)(F)F` [tetrabutylammonium heptadecafluorooctanesulfonate] yielded a surface tension liquid-gas ([1]; 298.4 K) of 21.98 ± 0.34 mN/m, a surface tension liquid-gas ([1]; 303.2 K) of 21.6 ± 0.34 mN/m and a surface tension liquid-gas ([1]; 313.3 K) of 21.11 ± 0.33 mN/m. It also gave a surface tension liquid-gas ([1]; 323.2 K) of 20.65 ± 0.33 mN/m, a surface tension liquid-gas ([1]; 333.2 K) of 20.14 ± 0.32 mN/m and a surface tension liquid-gas ([1]; 343 K) of 19.55 ± 0.31 mN/m.

For `CCCC[N+](CCCC)(CCCC)CCCC.O=S(=O)([O-])C(F)(F)C(F)(F)C(F)(F)C(F)(F)F` [tetrabutylammonium perfluorobutanesulfonate], the surface tension liquid-gas ([1]; 333.1 K) was 22.77 ± 0.35 mN/m, the surface tension liquid-gas ([1]; 338 K) was 22.57 ± 0.35 mN/m and the surface tension liquid-gas ([1]; 343.1 K) was 22.36 ± 0.35 mN/m. For the same compound, the surface tension liquid-gas ([1]; 348.3 K) was 22.2 ± 0.34 mN/m and the surface tension liquid-gas ([1]; 353.4 K) was 21.95 ± 0.34 mN/m.

Work on `CC[n+]1cccc(C)c1.O=C([O-])C(F)(F)C(F)(F)C(F)(F)C(F)(F)F` [1-ethyl-3-methylpyridinium perfluoropentanoate] yielded an electrical conductivity ([1]; 293.15 K) of 0.0915 ± 0.0015 S/m, a viscosity ([1]; 293.15 K) of 196 ± 5.2 mPa·s and a mass density ([1]; 293.15 K) of 1458.7 ± 1.6 kg/m3. The electrical conductivity ([1]; 298.15 K) was 0.12 ± 0.002 S/m, the viscosity ([1]; 298.15 K) was 147.1 ± 3.6 mPa·s and the mass density ([1]; 298.15 K) was 1453.6 ± 1.6 kg/m3. For the same compound, the surface tension liquid-gas ([1]; 298.3 K) was 26.83 ± 0.32 mN/m, the electrical conductivity ([1]; 303.15 K) was 0.155 ± 0.002 S/m and the viscosity ([1]; 303.15 K) was 110.8 ± 2.5 mPa·s. The mass density ([1]; 303.15 K) was 1448.6 ± 1.6 kg/m3, the electrical conductivity ([1]; 308.15 K) was 0.194 ± 0.003 S/m and the viscosity ([1]; 308.15 K) was 85.39 ± 1.9 mPa·s. The mass density ([1]; 308.15 K) was 1443.6 ± 1.6 kg/m3, the surface tension liquid-gas ([1]; 308.2 K) was 26.49 ± 0.32 mN/m and the electrical conductivity ([1]; 313.15 K) was 0.239 ± 0.003 S/m. For the same compound, the viscosity ([1]; 313.15 K) was 67.81 ± 1.4 mPa·s, the mass density ([1]; 313.15 K) was 1438.7 ± 1.5 kg/m3 and the surface tension liquid-gas ([1]; 317.9 K) was 26.07 ± 0.31 mN/m. It also gave an electrical conductivity ([1]; 318.15 K) of 0.289 ± 0.004 S/m, a viscosity ([1]; 318.15 K) of 53.67 ± 1.1 mPa·s and a mass density ([1]; 318.15 K) of 1433.7 ± 1.5 kg/m3. The electrical conductivity ([1]; 323.15 K) was 0.355 ± 0.004 S/m, the viscosity ([1]; 323.15 K) was 43.6 ± 0.91 mPa·s and the mass density ([1]; 323.15 K) was 1428.9 ± 1.5 kg/m3. For the same compound, the surface tension liquid-gas ([1]; 328 K) was 25.71 ± 0.31 mN/m, the viscosity ([1]; 328.15 K) was 35.94 ± 0.75 mPa·s and the mass density ([1]; 328.15 K) was 1424 ± 1.5 kg/m3. It also gave a viscosity ([1]; 333.15 K) of 30.35 ± 0.63 mPa·s, a mass density ([1]; 333.15 K) of 1419.2 ± 1.5 kg/m3 and a surface tension liquid-gas ([1]; 338 K) of 25.31 ± 0.31 mN/m. For the same compound, the viscosity ([1]; 338.15 K) was 25.32 ± 0.53 mPa·s, the mass density ([1]; 338.15 K) was 1414.3 ± 1.5 kg/m3 and the viscosity ([1]; 343.15 K) was 21.61 ± 0.45 mPa·s. It also gave a mass density ([1]; 343.15 K) of 1409.4 ± 1.5 kg/m3, a surface tension liquid-gas ([1]; 347 K) of 24.94 ± 0.31 mN/m and a viscosity ([1]; 348.15 K) of 18.61 ± 0.39 mPa·s. For the same compound, the mass density ([1]; 348.15 K) was 1404.5 ± 1.5 kg/m3, the viscosity ([1]; 353.15 K) was 16.39 ± 0.34 mPa·s and the mass density ([1]; 353.15 K) was 1399.5 ± 1.5 kg/m3. For the same compound, the Normal melting temperature ([1]; Crystal, DTA) was 2 ± 4 °C, the refractive index ([2]; 293.15 K) was 1.42282 ± 0.00037 and the refractive index ([2]; 298.15 K) was 1.42137 ± 0.00037. The refractive index ([2]; 303.15 K) was 1.4199 ± 0.00037, the refractive index ([2]; 308.15 K) was 1.41844 ± 0.00037 and the refractive index ([2]; 313.15 K) was 1.41697 ± 0.00037. It also gave a refractive index ([2]; 318.15 K) of 1.41553 ± 0.00037, a refractive index ([2]; 323.15 K) of 1.41406 ± 0.00037 and a refractive index ([2]; 328.15 K) of 1.4126 ± 0.00037. For the same compound, the refractive index ([2]; 333.15 K) was 1.41114 ± 0.00037, the refractive index ([2]; 338.15 K) was 1.40955 ± 0.00037 and the refractive index ([2]; 343.15 K) was 1.40811 ± 0.00037. The refractive index ([2]; 348.15 K) was 1.40672 ± 0.00037 and the refractive index ([2]; 353.15 K) was 1.40531 ± 0.00037.
